In assay [1] the test system is yeast cells specific to estrogens. As to the kind of experiment: Calibration curves for 17-β estradiol with immobilized yeast biosensor. In kind it is cell-based. The settings on record: yeast immobilized in matrix (2% atelocollagen, 0.5% polydimethylsiloxane); similar to liquid cultures. The text has this:
For example, the device employs S. cerevisiae cells specific for compounds with estrogenic/androgenic activity: for this aim an integrative vector with a regulatory element containing two or more tandem copies of the Androgen or Estrogen Responsive Element (ARE/ERE) upstream of the gene encoding for the bioluminescent reporter protein (e.g., luciferase from P. pyralis) and a vector encoding for human androgen or estrogen receptor were introduced in S. cerevisiae cells (A new highly specific and robust yeast androgen bioassay for the detection of agonists and antagonists Toine F. H. Boyce, Richard J. R. Helsdingen, Astrid R. M. Hamers, Majorie B. M. van Duursen, Michel W. F. Nielen, and Ron L. A. P. Hoogenboom). In this work, GFP is used as fluorescent reporter gene that also finds application in the present invention.
Analogously to Example 3, but with slight modifications to single components of the immobilization matrix (2% atelocollagen and 0.5% polydimethylsiloxane), a biosensor based on yeast cells specific to estrogens was immobilized.
Recombinant cells are grown in SC liquid culture (synthetic complete, selective for plasmid auxotrophies) at 30° C. up to an optical density at 600 nm of 0.6. Then, cells are immobilized as previously described.

For assay [2], the system named is recombinant E. coli cells specific for Cu^2+. As to the kind of experiment: Calibration curve for copper with immobilized bioluminescent biosensor and control strain. In kind it is cell-based. The settings on record: E. coli immobilized in the matrix; signal corrected with control strain constitutively expressing firefly luciferase. The procedure: For each calibration curve a limit of detection is calculated (LOD) according to the standard deviation on the blank signal measured with the calibration curve. It is provided by the analyte concentration corresponding to the signal XLOD:
A calibration curve for copper was performed by employing recombinant E. coli cells specific for Cu^2+ and a control strain that constitutively express firefly luciferase. The use of a control strain allows to correct the analytical signal with a detection limit of 0.05 ppm for Cu^2+.
Cells are grown in selective liquid medium at 37° C. (e.g., Luria Bertani Broth with antibiotic for plasmid maintenance) for each strain up to an optical density at 600 nm in the range 0.6-0.8.
Then, a buffered solution at pH 6.5-7.5 is added to each cell suspension containing nutrients and is mixed 1:2-1:4 with the immobilization matrix.
A solution containing 1% atelocollagen in PBS (NaCl 137 mM, KCl 2.7 mM, NaH2PO4 1.4 mM, Na2HPO4 4.3 mM) at pH 7.4 with decorin final concentration 15% w/w atelocollagen.
Polyvinylpyrrolidone (PVP) and modified polysiloxanes (e.g., polydimethylsiloxane, tetraethyl-orthosilicate) are added to a final concentration of 1% and 0.4%, respectively.

This is an account of results in US20120045835A1, “PORTABLE DEVICE BASED ON IMMOBILIZED CELLS FOR THE DETECTION OF ANALYTES” (priority 2009, published 2012).

As to `C[C@]12CC[C@@H]3c4ccc(O)cc4CC[C@H]3[C@@H]1CC[C@@H]2O` [17-β estradiol], the limit of detection in assay [1] was found to be 10 pM.
As for `[Cu+2]` [Cu^2+], in assay [2], the detection limit is listed as 0.05 ppm.
